The values below come from patent publication US20250034151A1, “WEE1 INHIBITOR, PREPARATION THEREFOR, AND USE THEREOF” (JIANGSU TASLY DIYI PHARMACEUTICAL CO., LTD., priority 2022, published 2025).

SMILES strings stand for the structures. Like-named read-outs stand apart in the source and are kept apart here. Bounds are passed on as bounds.

Data set [1] can be described thus: Pharmacokinetics on single dose in mice (intravenous and oral). The format is in vivo, ICR mice. To be noted: male, ICR, mouse, plasma, Oral, 10 mg/kg. On the procedure:
1. Experimental Aim: The present experiment aimed to obtain the pharmacokinetic profile of the subject compounds in ICR mice (both intravenous and oral) 3.1.2 Test System Species: SPF grade male ICR mice Body weight/weekly age: about 30 g 4. […] 4.2 Subjects Given (Route) Intravenous: 1 mg/kg in a volume of 5 mL/kg Gavage: 10 mg/kg in a volume of 10 mL/kg Ultrasound for 5 min before administration 4.3 Subject Preparation (Concentration) Intravenous: 0.2 mg/mL Gavage: 1 mg/mL Fast overnight before administration and feed four hours after administration. […] The blood samples were stored in a refrigerator at or below −20° C. for LC-MS/MS analysis. […] LC-MS/MS Analytical Detection Used 5. Data Processing The samples were detected for drug concentration at each time point by LC-MS/MS. Pharmacokinetic parameters terminal elimination half-life (t1/2), area under the curve (AUC), apparent volume of distribution (Vd), clearance (CL), mean residence time (MRT), and Cmax were calculated using the non-compartmental model of Phoenix WinNonlin 5.2. Bioavailability (F %) was directly from serum concentration results. Mean±standard deviation (X±SD) was used for blood concentration and pharmacokinetic parameters, etc. Specific testing and analytical methods were specified in the form of protocol revisions.

Data set [2] in a line: Membrane permeability study (Caco-2). The data set is classed as in vitro ADME. To be noted: human. On the procedure:
Caco-2 cells were purchased from the […] (Rockville, MD). The cell culture medium was modified Eagle's medium (MEM) containing 10% inactivated fetal bovine serum and 1% non-essential amino acids.
The cells were incubated for 21-28 days after inoculation for transport experiments and the apparent permeability (Papp) of Lucifer Yellow was used to characterize and verify the compactness of the cell monolayer. […] A 10 μM working solution of the compound to be tested was added to the apical side and basolateral side of Caco-2 and incubated at 37° C. for 90 min. After the incubation, dilute the samples on the apical side and basolateral side, and the concentrations of compounds on the apical and basolateral sides were detected by LC-MS/MS, and the concentrations of the compounds were quantified by standard curve.

For data set [3], the target named is T1, Wee1 protein (Homo sapiens, UniProt P30291).
T1 construct: purchased Thermo Fisher PR7373A
T1 sequence (P30291 whole entry): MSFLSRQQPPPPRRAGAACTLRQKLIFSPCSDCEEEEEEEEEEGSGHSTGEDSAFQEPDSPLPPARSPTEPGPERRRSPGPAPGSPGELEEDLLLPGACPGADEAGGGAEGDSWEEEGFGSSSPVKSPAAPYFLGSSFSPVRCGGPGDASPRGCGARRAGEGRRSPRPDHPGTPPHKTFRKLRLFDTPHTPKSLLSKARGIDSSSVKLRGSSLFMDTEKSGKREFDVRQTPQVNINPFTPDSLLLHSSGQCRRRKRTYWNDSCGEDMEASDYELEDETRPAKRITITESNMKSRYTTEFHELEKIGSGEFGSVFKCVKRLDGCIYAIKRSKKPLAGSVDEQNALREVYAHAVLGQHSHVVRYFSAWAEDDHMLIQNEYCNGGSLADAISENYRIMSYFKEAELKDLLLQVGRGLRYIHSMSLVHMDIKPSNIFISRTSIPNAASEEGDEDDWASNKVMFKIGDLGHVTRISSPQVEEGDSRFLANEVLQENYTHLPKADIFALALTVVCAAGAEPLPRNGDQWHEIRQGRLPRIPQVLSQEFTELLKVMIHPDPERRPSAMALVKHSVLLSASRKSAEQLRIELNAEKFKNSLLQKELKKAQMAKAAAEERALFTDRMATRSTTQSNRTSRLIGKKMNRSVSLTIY
The experiment in a line: Binding of compound to Wee1 protein and Tracer 178 by TR-FRET (Wee1 kinase inhibitory activity). Conditions: 15 nM WEE1, 50 nM Tracer 178, read-out: IC50 (inhibitory activity against Wee1 kinase).

Data set [4] deals with MIA PaCa2 cells. Nature of the data set: Anti-proliferative effect on MIA PaCa2 cells by Cell Titer-Glo. The data set is classed as cell-based. To be noted: Homo sapiens, MIA PaCa-2, 72 h, 3 days, read-out: MIA PaCa 2 (IC50, inhibition of proliferation in vitro). The gist of the method:
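Cells exposed to graded compound concentrations for 3 days at 37° C, 5% CO2, final DMSO 0.2%; viability read by CellTiter-Glo luminescence. Inhibition normalised to untreated cells (max) and medium (min); IC50 fitted by variable-slope log(inhibitor)-response model.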

In data set [5] the test system is H1299 cells. The experiment in a line: Anti-proliferative effect on H1299 cells by Cell Titer-Glo. The data set is classed as cell-based. To be noted: 3 days. Summed up: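 H1299 cells exposed to compound dilutions for 3 days at 37 °C, 5% CO2, final DMSO 0.2%. Viability read by CellTiter-Glo luminescence, normalised to untreated-cell (max) and medium (min) controls. IC50 from a variable-slope log(inhibitor) vs. response fit.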

The nature of data set [6]: Plasma protein binding (PPB), equilibrium dialysis. The data set is classed as in vitro ADME. To be noted: mouse plasma, 5 h dialysis. The text has this: 1. Experimental Procedure
2. Data Processing and Parameter Calculation

A short description of data set [7]: Liver microsomes in vitro stability (human). The format is in vitro ADME. To be noted: read-out: T1/2/min (H). On the procedure:
(§1) 1. Preparation of Working Solution:
(§2) Microsomes were taken out from the −80° C. refrigerator, rapidly melted in a 37° C. water bath and placed on ice until ready to use. The test article was diluted with DMSO to prepare a 10 mM stock solution, and then diluted with acetonitrile to a 0.5 mM secondary stock solution. […] NADPH was diluted with Buffer C to a working solution of 6 mM for the starter solution. An acetonitrile solution containing an internal standard was prepared as the precipitant, and Verapamil-HCl was chosen as the internal standard at a concentration of 4 ng/ml.
(§3) 2. Experimental Procedure:
(§4) A round-bottom well plate was taken, noted as the reaction plate, and the prepared working solution for each compound was dispensed into the well plate according to the number of replicates and time points (0 h samples were also added to the reaction plate), 30 μL/well; the plate was incubated at 37° C. for 10 min. A separate plate with pointed bottom wells, noted as a precipitation plate, was added with 135 μL precipitant per well; 0 h samples were transferred to the plate after 10 min incubation and 15 μL of starter solution was added; the plate was placed on ice before centrifugation.
(§5) The diluted starter solution was added in sufficient quantity to the dispensing plate to facilitate the multichannel pipette aspiration operation.
(§6) The reaction was carried out on a warm incubation shaker and 15 μL of starter solution/sample is added to the plate using a multichannel pipette. The reaction was mixed with a slight shake to initiate the reaction, which was accurately timed and recorded using a timer. In general, samples with shorter reaction times are initiated late and vice versa early, allowing sufficient time for multiple plate manipulation to terminate the reaction. For example, as for the four experiments of 5, 15, 30, and 60 min, the 60 min experiment was started first, and the 5 min experiment was started later, so as to leave sufficient time for the 5 min group.
(§7) After the reaction time had elapsed, all the solution in the plate was aspirated using the multichannel pipette and added to the precipitation plate to terminate the reaction at that point in time. After all reactions had been terminated, the plates were shaken for ten minutes on a plate shaker at 600 rpm to precipitate the protein. The plate was centrifuged at 4° C. for 15 minutes at maximum rpm. 80 μL of supernatant was taken, 320 μL of pure water was added and mixed for LC-MS analysis.

A short description of data set [8]: Liver microsomes in vitro stability (mouse). Conditions: read-out: T1/2/min. The format is in vitro ADME. On the procedure:
as §1, §2, §3, §4, §5, §6, §7

In data set [9] the target is T2, CYP2B6 (Homo sapiens, UniProt P20813).
T2 sequence (P20813 1-491): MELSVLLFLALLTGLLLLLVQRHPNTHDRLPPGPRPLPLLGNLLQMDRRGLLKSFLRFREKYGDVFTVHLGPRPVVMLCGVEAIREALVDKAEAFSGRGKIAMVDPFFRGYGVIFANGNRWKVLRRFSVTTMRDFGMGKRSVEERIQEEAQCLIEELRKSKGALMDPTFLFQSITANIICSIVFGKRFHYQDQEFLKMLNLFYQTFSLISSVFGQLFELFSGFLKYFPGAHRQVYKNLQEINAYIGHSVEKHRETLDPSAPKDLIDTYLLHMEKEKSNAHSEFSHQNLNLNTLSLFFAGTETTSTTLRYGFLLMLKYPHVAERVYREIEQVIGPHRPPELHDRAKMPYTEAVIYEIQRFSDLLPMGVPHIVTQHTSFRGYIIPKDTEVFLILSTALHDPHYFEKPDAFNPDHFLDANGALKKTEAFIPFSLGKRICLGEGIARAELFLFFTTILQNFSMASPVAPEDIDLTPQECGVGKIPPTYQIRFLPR
The experiment in a line: CYP450 isoform enzymatic inhibition, 2B6. The format is in vitro ADME. To be noted: pH 7.4, read-out: CYP inhibiton/% 2B6.
Protocol: Enzymatic experiments were performed to quantify the inhibition of CYP450 enzyme activity of each isoform of CYP450 by small molecule inhibitors through fluorescence generated by the oxidation of the The substrate by cytochrome P450. […] The Solution B composition used for the experiment was: 40 U/mL G6PDH (Sigma-aldrich, Cat #G6378). The The substrate mix was 0.05×Solution A, 0.01×Solution B, 50 mM Potassium Phosphate, 0.01 mM BOMCC/0.01 mM EOMCC/0.001 mM DBOMF.

[10] abbreviates: Homo sapiens, NCI-H1299, 72 h, read-out: H1299 (IC50, inhibition of proliferation in vitro).

In data set [1], `C=CCn1c(=O)c2cnc(Nc3ccc(N4CC5CC(C4)N5CCF)cc3)nc2n1-c1cccc(C(C)(C)O)n1` [Compound 48] showed an AUC(0-t) of 482 ng·h/mL, a Cmax of 470 ng/mL, an MRT of 54 min and a half-life of 38.4 min. Further, the efflux ratio at 90 min, 10 µM in data set [2] (Caco-2, pH 7.4) stood at 2.65. In [2] (pH 7.4, Caco-2, 10 μM, 90 min, apical to basolateral), this compound had a Papp A→B at 90 min, 10 µM of 13.3 ×10⁻⁶ cm/s. For the same compound, the Papp B→A at 90 min, 10 µM in [2] (pH 7.4, Caco-2, 10 μM, 90 min, basolateral to apical) worked out at 35.3 ×10⁻⁶ cm/s. For the same compound, the IC50 in [3] is less than 5 nM. The IC50 in data set [4] lay in the range of 100 to 1000 nM. Also, the IC50 in data set [5] (setting [10]) fell in the range of 100 to 1000 nM. This compound also had a fraction unbound at 5 h, 1 µM in [6] of 0.031.

In data set [1], `C=CCn1c(=O)c2cnc(Nc3ccc(N4CC5CC(C4)N5C)cc3)nc2n1-c1ccc2cnn(CC)c2n1` [Compound 53] gave an AUC(0-t) of 1640 ng·h/mL, a Cmax of 800 ng/mL, an MRT of 115 min and a half-life of 113 min. Moreover, the IC50 in [3] fell in the range of 5 to 10 nM. For the same compound, the IC50 in [4] is 2000 to 5000 nM. In addition, the IC50 in [5] (listed as Compound53, read-out: H1299 (IC50, inhibition of proliferation in vitro)) was in the range of 100 to 1000 nM. For the same compound, the fraction unbound at 5 h, 1 µM in [6] is 0.035.

As to `C=CCn1c(=O)c2cnc(Nc3ccc(N4CCOC5(CCCN(C)C5)C4)cc3)nc2n1-c1cccc(C(C)(C)O)n1` (centres unmarked) [Compound 46], the half-life at 1 µM in data set [7] came to 16.8 min; in data set [8] it was 13.6 min. Besides, the IC50 in [3] lay within 10 to 100 nM; in data set [4], 100 to 1000 nM; in data set [5] (setting [10]), 100 to 1000 nM. The fraction unbound at 5 h, 1 µM in data set [6] is 0.179.

Take `C=CCn1c(=O)c2cnc(Nc3ccc(N4C[C@@H]5C[C@H]4CN5C)cc3)nc2n1-c1cccc(C(C)(C)O)n1` [Compound 3]: the inhibition at 30 min, 10 µM in [9] came out at 1.38%.

In data set [1], `C=CCn1c(=O)c2cnc(Nc3ccc(N4CC5CC(C4)N5C)cc3)nc2n1-c1ccc2ccn(CC)c2n1` [Compound 51] gave an AUC(0-t) of 430 ng·h/mL, a Cmax of 290 ng/mL, an MRT of 70.8 min and a half-life of 57 min. Besides, the half-life at 1 µM in data set [7] was 19 min. Further, in data set [3], the IC50 is less than 5 nM. Further, the IC50 in data set [4] lay in the range of 100 to 1000 nM. Also, in data set [5] (setting [10]), the IC50 was 100 to 1000 nM. Moreover, the fraction unbound at 5 h, 1 µM in data set [6] was 0.03. Further, the half-life at 1 µM in [8] came to 14.7 min.

In [1], `C=CCn1c(=O)c2cnc(Nc3ccc(N4CC5CC(C4)N5C4CCC4)cc3)nc2n1-c1cccc(C(C)(C)O)n1` [Compound 49] gave an AUC(0-t) of 534 ng·h/mL, a Cmax of 388 ng/mL, an MRT of 68.4 min and a half-life of 61.8 min. Besides, in data set [3], the IC50 was less than 5 nM. Also, the IC50 in data set [4] was 100 to 1000 nM. The IC50 in data set [5] (setting [10]) was 100 to 1000 nM. The fraction unbound at 5 h, 1 µM in data set [6] is 0.042.
